pKi: −log10 of the molar value.

In the assay the target is human orexin 2 receptor (Homo sapiens (Human), UniProt O43614). Kind of assay: Human orexin 2 receptor radioligand binding ([3H]-EMPA competition). As to conditions: HEK293 stably expressing human orexin 2 receptor; 2 nM [3H]-EMPA; averages of 2-20 runs; read-out: hOX2 Ki. The protocol:
The in vitro affinity of the compounds of the invention for the rat/human orexin 1 and human orexin 2 receptors was determined by competitive radioligand binding using [^3H](1-(5-(2-fluoro-phenyl)-2-methyl-thiazol-4-yl)-1-((S)-2-(5-phenyl-(1,3,4)oxadiazol-2-ylmethyl)-pyrrolidin-1-yl)-methanone) (Langmead et al., 2004) and [^3H]EMPA (n-ethyl-2[96-methoxy-pyridin-3-yl)-(toluene-2-sulfonyl)-amino]-N-pyridin-3-ylmethyl acetamide), respectively (Langmead et al., 2004, British Journal of Pharmacology 141:340-346; Malherbe et al., 2004, British Journal of Pharmacology 156:1326-41).
Data are analyzed using pc-Sandy macro and graphed on Graphpad Prism 5. For analysis, each concentration point is averaged from triplicate values and the averaged values are plotted on Graphpad Prism. The IC50 was determined by applying the following equation (GraphPad Prism 5.0, San Diego) for one site competition where X=log (concentration) and Y=specific binding. Top denotes the total [^3H]— (1-(5-(2-fluoro-phenyl)-2-methyl-thiazol-4-yl)-1-((S)-2-(5-phenyl-(1,3,4)oxadiazol-2-ylmethyl)-pyrrolidin-1-yl)-methanone) binding, bottom denotes the nonspecific [^3H]— (1-(5-(2-fluoro-phenyl)-2-methyl-thiazol-4-yl)-1-((S)-2-(5-phenyl-(1,3,4)oxadiazol-2-ylmethyl)-pyrrolidin-1-yl)-methanone) binding. Graphpad Prism calculates Ki value from IC50 and the pre-determined Kd values for [^3H]— (1-(5-(2-fluoro-phenyl)-2-methyl-thiazol-4-yl)-1-((S)-2-(5-phenyl-(1,3,4)oxadiazol-2-ylmethyl)-pyrrolidin-1-yl)-methanone) and [^3H]-EMPA. The Ki for each compound is then uploaded into 3DX. Each run comprises individual compounds in triplicate. The data in Table 1 and Table 2 represent averages from between 2-20 runs
Human Orexin 2 Receptor Radioligand Binding Studies
HEK293 stably expressing human orexin 2 receptor (Genebank accession number NM_001526) were grown to confluency in DMEM (Hyclone, cat # SH30022), 10% FBS, 1× Pen/Strep, 1× NaPyruvate, 10 mM HEPES, 600 μg/ml G418 media on 150 cm^2 tissue culture plates, washed with 5 mM EDTA in PBS (HyClone Dulbecco's Phosphate Buffered Saline 1× with Calcium and Magnesium, Cat # SH30264.01, hereafter referred to simply as PBS) and scraped into 50 ml tubes. After centrifugation (2K×G, 5 min at 4° C.), the supernatant was aspirated and the pellets frozen and stored at −80° C. Cells were resuspended in PBS in the presence of 1 tablet of protease inhibitor cocktail (Roche, Cat. #11836145001) per 50 mL. […] Compounds were solubilized in 100% DMSO (Acros Organics, Cat. #61042-1000) and tested over a range of 7 concentration (from 0.1 nM to 10 μM). The final concentration of DMSO in the reactions is equal to or less than 0.1%. Total and nonspecific binding was determined in the absence and presence of 10 μM almorexant. The total volume of each reaction is 200 μL (20 μL of diluted compounds, 80 μL of [^3H]-EMPA diluted in PBS and 100 μL of the cell suspension). Reactions were run for 60 min at room temperature and terminated by filtration through GF/C filter plates (PerkinElmer, Cat. #6005174) presoaked in 0.3% polyethylenimine using the cell harvester (PerkinElmer Filtermate). The plates were washed 3 times by aspirating 30 ml PBS through the plates. Plates were dried in 55° C. oven for 60 min, scintillation fluid was added, and the radioactivity was counted on a Topcount (Packard).

Chain of human orexin 2 receptor (O43614 whole entry): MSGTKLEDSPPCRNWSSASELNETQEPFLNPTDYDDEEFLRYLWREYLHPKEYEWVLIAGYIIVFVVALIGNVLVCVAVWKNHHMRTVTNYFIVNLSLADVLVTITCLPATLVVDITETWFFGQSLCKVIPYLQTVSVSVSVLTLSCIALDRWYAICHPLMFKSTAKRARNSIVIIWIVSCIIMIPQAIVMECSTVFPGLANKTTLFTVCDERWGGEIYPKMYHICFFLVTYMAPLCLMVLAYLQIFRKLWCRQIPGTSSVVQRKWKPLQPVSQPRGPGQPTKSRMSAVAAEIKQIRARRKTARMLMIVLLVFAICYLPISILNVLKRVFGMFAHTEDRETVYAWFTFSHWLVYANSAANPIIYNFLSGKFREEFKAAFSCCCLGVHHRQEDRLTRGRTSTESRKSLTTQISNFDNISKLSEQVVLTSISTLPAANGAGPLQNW

Take `Cc1cnc(C(=O)N2[C@H](C)[C@H]3C[C@@H](Oc4cnc(C(F)(F)F)cn4)[C@@H]2C3)c(-n2nccn2)c1` (relative stereo) [Example 48, (5-methyl-3-(2H-1,2,3-triazol-2-yl)pyridin-2-yl)((1S*,3R*,4R*,6R*)-3-methyl-6-((5-(trifluoromethyl)pyrazin-2-yl)oxy)-2-azabicyclo[2.2.1]heptan-2-yl)methanone]: the negative logarithm of the Ki (pKi) was less than 5.00.
The result for `CC1C2CC(Oc3ccc(C(F)(F)F)cn3)C(C2)N1C(=O)c1cc(F)ccc1-c1ncccn1` (single isomer, unassigned) [Example 18A, (5-fluoro-2-(pyrimidin-2-yl)phenyl)((1R*,3S*,4S*,6S*)-3-methyl-6-((5-(trifluoromethyl)pyridin-2-yl)oxy)-2-azabicyclo[2.2.1]heptan-2-yl)methanone] reads less than 5.00.
The result for `[2H]C([2H])([2H])[C@]1([2H])[C@H]2C[C@@H](Oc3ccc(C(F)(F)F)cn3)[C@H](C2)N1C(=O)c1ncc(C)cc1-n1nccn1` [Example 166, [(1R,2R,4S,5R)-2-deuterio-2-(trideuteriomethyl)-5-[[5-(trifluoromethyl)-2-pyridyl]oxy]-3-azabicyclo[2.2.1]heptan-3-yl]-[5-methyl-3-(triazol-2-yl)-2-pyridyl]methanone] reads 5.96.
The value for `CC1C2CC(Oc3ccc(C(F)(F)F)cn3)C(C2)N1C(=O)c1cc(F)ccc1-c1ncccn1` (racemic) [Example 18, (R/S)-(5-fluoro-2-(pyrimidin-2-yl)phenyl)(−3-methyl-6-((5-(trifluoromethyl)pyridin-2-yl)oxy)-2-azabicyclo[2.2.1]heptan-2-yl)methanone] was 5.80; that for `CC1C2CC(Oc3ccc(C(F)(F)F)cn3)C(C2)N1C(=O)c1cccc(F)c1-c1ncc(F)cn1` (single isomer, unassigned) [Example 20A, (3-fluoro-2-(5-fluoropyrimidin-2-yl)phenyl)((1R*,3S*,4S*,6S*)-3-methyl-6-((5-(trifluoromethyl)pyridin-2-yl)oxy)-2-azabicyclo[2.2.1]heptan-2-yl)methanone] was less than 5.00.
`C[C@@H]1[C@H]2C[C@@H](Oc3cnc(C(F)(F)F)cn3)[C@H](C2)N1C(=O)c1ccc(F)cc1-n1nccn1` (relative stereo) [Example 53, (4-fluoro-2-(2H-1,2,3-triazol-2-yl)phenyl)((1S*,3R*,4R*,6R*)-3-methyl-6-((5-(trifluoromethyl)pyrazin-2-yl)oxy)-2-azabicyclo[2.2.1]heptan-2-yl)methanone]: the negative logarithm of the Ki (pKi) was 5.12.
The value for `O=C(c1ccccc1-n1nccn1)N1C(CF)C2CC(Oc3ccc(C(F)(F)F)cn3)C1C2` (racemic) [Example 73, (R/S)-(2-(2H-1,2,3-triazol-2-yl)phenyl)(3-(fluoromethyl)-6-((5-(trifluoromethyl)pyridin-2-yl)oxy)-2-azabicyclo[2.2.1]heptan-2-yl)methanone] was 5.70; that for `CC1C2CC(Oc3ccc(C(F)(F)F)cn3)C(C2)N1C(=O)c1cccc(F)c1-c1ncc(F)cn1` (single isomer, unassigned) [Example 20B, (3-fluoro-2-(5-fluoropyrimidin-2-yl)phenyl)((1S*,3R*,4R*,6R*)-3-methyl-6-((5-(trifluoromethyl)pyridin-2-yl)oxy)-2-azabicyclo[2.2.1]heptan-2-yl)methanone] was 5.72.
Consider `Cc1ccc(-n2nccn2)c(C(=O)N2[C@H](C)[C@H]3C[C@@H](Oc4cnc5ccccc5n4)[C@@H]2C3)n1` (relative stereo) [Example 183, (6-methyl-3-(2H-1,2,3-triazol-2-yl)pyridin-2-yl)((1S*,3R*,4R*,6R*)-3-methyl-6-(quinoxalin-2-yloxy)-2-azabicyclo[2.2.1]heptan-2-yl)methanone], for which the negative-log Ki (pKi) is 6.71.
`Cc1ccc(C(=O)N2[C@H](C)[C@H]3C[C@@H](Oc4cnc(C(F)(F)F)cn4)[C@@H]2C3)c(-n2nccn2)n1` (relative stereo) [Example 49, (6-methyl-2-(2H-1,2,3-triazol-2-yl)pyridin-3-yl)((1S*,3R*,4R*,6R*)-3-methyl-6-((5-(trifluoromethyl)pyrazin-2-yl)oxy)-2-azabicyclo[2.2.1]heptan-2-yl)methanone]: the pKi was less than 5.00.
On to `CC1C2CC(Nc3cnc(C(F)(F)F)cn3)C(C2)N1C(=O)c1ccccc1-n1nccn1` (racemic) [Example 68, (R/S)-(2-(2H-1,2,3-triazol-2-yl)phenyl)(3-methyl-6-((5-(trifluoromethyl)pyrazin-2-yl)amino)-2-azabicyclo[2.2.1]heptan-2-yl)methanone], for which the negative-log Ki (pKi) is 6.20.
The value for `Cc1ccc(-n2nccn2)c(C(=O)N2C(C)C3CC(Nc4cnc(C(F)(F)F)cn4)C2C3)n1` (single isomer, unassigned) [Example 69A, (6-methyl-3-(2H-1,2,3-triazol-2-yl)pyridin-2-yl)((1R*,3S*,4R*,6S*)-3-methyl-6-((5-(trifluoromethyl)pyrazin-2-yl)amino)-2-azabicyclo[2.2.1]heptan-2-yl)methanone] was less than 5.00.
`CC1C2CC(Nc3cnc(C(F)(F)F)cn3)C(C2)N1C(=O)c1ccccc1-n1nccn1` (single isomer, unassigned) [Example 68B, (2-(2H-1,2,3-triazol-2-yl)phenyl)((1S*,3R*,4S*,6R*)-3-methyl-6-((5-(trifluoromethyl)pyrazin-2-yl)amino)-2-azabicyclo[2.2.1]heptan-2-yl)methanone]: the pKi was 6.59.
The value for `CCC1C2CC(Oc3ccc(C(F)(F)F)cn3)C(C2)N1C(=O)c1ccccc1-c1ncccn1` (racemic) [Example 214, (R/S)-[2-ethyl-5-[[5-(trifluoromethyl)-2-pyridyl]oxy]-3-azabicyclo[2.2.1]heptan-3-yl]-(2-pyrimidin-2-ylphenyl)methanone] was 6.50.
The value for `Cc1ccc(-n2nccn2)c(C(=O)N2[C@H](C)[C@H]3C[C@@H](Oc4cnc5ccccc5c4)[C@@H]2C3)n1` (relative stereo) [Example 185, (6-methyl-3-(2H-1,2,3-triazol-2-yl)pyridin-2-yl)((1S*,3R*,4R*,6R*)-3-methyl-6-(quinolin-3-yloxy)-2-azabicyclo[2.2.1]heptan-2-yl)methanone] was 7.21.
The result for `C[C@@H]1[C@H]2C[C@@H](Oc3cnc4cc(F)c(F)cc4n3)[C@H](C2)N1C(=O)c1ccccc1-n1nccn1` (relative stereo) [Example 191, (2-(2H-1,2,3-triazol-2-yl)phenyl)((1S*,3R*,4R*,6R*)-6-((6,7-difluoroquinoxalin-2-yl)oxy)-3-methyl-2-azabicyclo[2.2.1]heptan-2-yl)methanone] reads 7.14; that for `C[C@@H]1[C@H]2C[C@@H](Oc3ccc(C(F)(F)F)cn3)[C@H](C2)N1C(=O)c1c(F)cccc1-n1nccn1` (relative stereo) [Example 30, (2-fluoro-6-(2H-1,2,3-triazol-2-yl)phenyl)((1S*,3R*,4R*,6R*)-3-methyl-6-((5-(trifluoromethyl)pyridin-2-yl)oxy)-2-azabicyclo[2.2.1]heptan-2-yl)methanone], 6.16; that for `CC(C)CC1C2CC(Oc3ccc(C(F)(F)F)cn3)C(C2)N1C(=O)c1cccc(F)c1-c1ncccn1` (racemic) [Example 211, (R/S)-(3-fluoro-2-pyrimidin-2-yl-phenyl)-[2-isobutyl-5-[[5-(trifluoromethyl)-2-pyridyl]oxy]-3-azabicyclo[2.2.1]heptan-3-yl]methanone], 5.48.

These data come from patent US9611262B2, “Substituted 2-azabicycles and their use as orexin receptor modulators” (JANSSEN PHARMACEUTICA NV, priority 2014, dated 2017).
